pIC50: −log10 of the molar value.
Columns and labels:
[1] = Evaluation of total body clearance (CLtot), intravenous administration; format: in vivo, Sprague-Dawley (SD); settings: rat (SD), intravenous administration 0.5-10 mg/kg; CLtot = dose/AUC
Protocol: Dose: Intravenous administration with designated doses was selected. (Doses were changed depending on compounds.) • 0.5-10 mg/kg (n=2-3) Preparation of dosing formulation: The dosing solution was prepared by dissolving in an adequate solvent. Administration method: The dosing solution was injected into the tail vein by a syringe with a needle Blood sampling: The blood was collected at the scheduled time and obtained the plasma. Plasma concentrations of the compound were measured by LC/MS/MS. Statistical analysis: Area under the plasma concentration-time curve (AUC) of the compound was calculated by pharmacokinetic analysis software, WinNonlin™ and CLtot was calculated by dividing the dose by AUC.

HIV-1 PR = HIV-1 PR (Human immunodeficiency virus type 1 group M subtype B, UniProt P04585); assay: HIV-protease inhibitory activity assay (FRET peptide substrate); format: biochemical; settings: Test Example 1
In short: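 Compounds were preincubated with HIV-1 PR (0.83 ng) at room temperature in pH 4.8 NaAc buffer (0.5 M NaCl, EDTA, DTT, Tween 20), then HiLyte Fluor 488/QXL 520 FRET peptide (2 μmol/L final) was added for 60 min. Fluorescence was read at 485/535 nm, and IC50 was fitted by four-parameter logistic regression.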

Row | SMILES | rat_CLt [1] [mL/min/kg] | pIC50 (HIV-1 PR)
1 | COc1ccc(S(=O)(=O)N(CC(C)C)C[C@@H](O)[C@H](Cc2ccc(N3CC[C@H](Oc4ccccc4-n4nc5c(c4C(=O)O)CC(C)(C)CC5)C3)cc2)NC(=O)O[C@H]2CO[C@@]3(C)OCC[C@@H]23)cc1 [Compound I-596] | 0.213 | 8.81
2 | COc1ccc(S(=O)(=O)N(CC(C)C)CC(O)C(Cc2ccc(NCC3CCCCC3C(=O)Nc3sc4c(c3C(=O)O)CC(C)(C)CC4)cc2)NC(=O)OC2COC3(C)OCCC23)cc1 (centres unmarked) [Compound I-614] | 0.146 | 8.54
3 | COc1ccc(S(=O)(=O)N(CC(C)C)CC(O)C(Cc2ccc(NCC3COCCC3c3sc4c(c3C(=O)O)CC(C)(C)CC4)cc2)NC(=O)OC2COC3(C)OCCC23)cc1 (centres unmarked) [Compound I-399] | 0.487 | 8.71
4 | COc1ccc(S(=O)(=O)N(CC(C)C)CC(O)C(Cc2ccc(NCc3cc([N+](=O)[O-])ccc3-c3sc4c(c3C(=O)O)CC(C)(C)CC4)cc2)NC(=O)OC2COC3(C)OCCC23)cc1 (centres unmarked) [Compound I-567] | 2.81 | 8.51
5 | COc1ccc(S(=O)(=O)N(CC(C)C)CC(O)C(Cc2ccc(OCc3ccccc3NC(=O)c3sc4c(c3C(=O)O)CC(C)(C)CC4)cc2)NC(=O)OC2COC3(C)OCCC23)cc1 (centres unmarked) [Compound I-214] | 0.297 | 8.72
6 | COc1ccc(S(=O)(=O)N(CC(C)C)CC(O)C(Cc2ccc(NCc3ccc(-c4ccccc4-c4sc5c(c4C(=O)O)CC(C)(C)CC5)cc3)cc2)NC(=O)OC2COC3(C)OCCC23)cc1 (centres unmarked) [Compound I-530] | 1.57 | 8.08
7 | COc1ccc(S(=O)(=O)N(CC(C)C)CC(O)C(Cc2ccc(N3CCC(Oc4ccc(C(F)(F)F)cc4-c4sc5c(c4C(=O)O)CC(C)(C)CC5)C3)cc2)NC(=O)OC2COC3(C)OCCC23)cc1 (centres unmarked) [Compound I-514] | 3.01 | 8.21
8 | COc1ccc(S(=O)(=O)N(CC(C)C)CC(O)C(Cc2ccc(NCc3nc(N4CCCC4)sc3-c3ccc(-c4sc5c(c4C(=O)O)CC(C)(C)CC5)cc3)cc2)NC(=O)OC2COC3(C)OCCC23)cc1 (centres unmarked) [Compound I-714] | 0.0783 | 8.35
9 | COc1ccc(S(=O)(=O)N(CC(C)C)CC(O)C(Cc2ccc(N(C)CC3=C(c4sc5c(c4C(=O)O)CC(C)(C)CC5)CCCCC3)cc2)NC(=O)OC2COC3(C)OCCC23)cc1 (centres unmarked) [Compound I-525] | 0.127 | 8.24
10 | COc1ccc(S(=O)(=O)N(CC(C)C)CC(O)C(Cc2ccc(NCc3cc(C4=CCCCC4)ccc3-c3sc4c(c3C(=O)O)CC(C)(C)CC4)cc2)NC(=O)OC2COC3(C)OCCC23)cc1 (centres unmarked) [Compound I-727] | 0.0528 | 8.47
11 | COc1ccc(S(=O)(=O)N(CC(C)C)CC(O)C(Cc2ccc(NCc3cccc(C(=O)Nc4sc5c(c4C(=O)O)CC(C)(C)CC5)c3)cc2)NC(=O)OC2COC3(C)OCCC23)cc1 (centres unmarked) [Compound I-436] | 1.72 | 8.50
12 | COc1ccc(S(=O)(=O)N(CC(C)C)CC(O)C(Cc2ccc(NCC3=C(c4sc5c(c4C(=O)O)CC(C)(C)CC5)CC(C)(C)C3)cc2)NC(=O)OC2COC3(C)OCCC23)cc1 (centres unmarked) [Compound I-662] | 1.11 | 8.60
13 | COc1ccc(S(=O)(=O)N(CC(C)C)CC(O)C(Cc2ccc(NCc3ccc(-c4sc5c(c4C(=O)O)CC(C)(C)CC5)cc3O)cc2)NC(=O)OC2COC3(C)OCCC23)cc1 (centres unmarked) [Compound I-555] | 5.98 | 8.77
14 | COc1ccc(S(=O)(=O)N(CC(C)C)CC(O)C(Cc2ccc(NCc3ccccc3NC(=O)c3sc4c(c3C(=O)O)CC(C)(C)CC4)cc2)NC(=O)OC2COC3(C)OCCC23)cc1 (centres unmarked) [Compound I-574] | 1.01 | 8.53
15 | COc1ccc(S(=O)(=O)N(CC(C)C)CC(O)C(Cc2ccc(N(C)Cc3ccccc3C(=O)Nc3sc4c(c3C(=O)O)CC(C)(C)CC4)cc2)NC(=O)OC2COC3(C)OCCC23)cc1 (centres unmarked) [Compound I-407] | 0.31 | 8.42
16 | COc1ccc(S(=O)(=O)N(CC(C)C)CC(O)C(Cc2ccc(N3CCC(Oc4ccccc4C(=O)Nc4sc5c(c4C(=O)O)CC(C)(C)CC5)C3)cc2)NC(=O)OC2COC3(C)OCCC23)cc1 (centres unmarked) [Compound I-588] | 0.291 | 8.48
17 | C=CCNc1ccc(-c2sc3c(c2C(=O)O)CC(C)(C)CC3)c(CNc2ccc(CC(NC(=O)OC3COC4(C)OCCC34)C(O)CN(CC(C)C)S(=O)(=O)c3ccc(OC)cc3)cc2)c1 (centres unmarked) [Compound I-676] | 0.145 | 8.62
18 | CC(C)CN(CC(O)C(Cc1ccc(NCc2ccccc2-c2sc3c(c2C(=O)O)CC(C)(C)CC3)cc1)NC(=O)OC1COC2(C)OCCC12)S(=O)(=O)c1ccc(OCF)cc1 (centres unmarked) [Compound I-507] | 1.61 | 8.73
19 | CC1(C)CCc2sc(NC(=O)c3ccccc3CNc3ccc(CC(NC(=O)OC4COC5(C)OCCC45)C(O)CN(CC4CCC4)S(=O)(=O)c4ccc5ncsc5c4)cc3)c(C(=O)O)c2C1 (centres unmarked) [Compound I-617] | 0.098 | 8.50
20 | COc1ccc(S(=O)(=O)N(CC2CCC2)CC(O)C(Cc2ccc(NCc3cc(C(F)(F)F)ccc3-c3sc4c(c3C(=O)O)CC(C)(C)CC4)cc2)NC(=O)OC2COC3OCCC23)cc1 (centres unmarked) [Compound I-869] | 1.15 | 8.19
21 | COc1ccc(S(=O)(=O)N(CC(C)C)CC(O)C(Cc2ccc(NCc3cc4c(cc3-c3sc5c(c3C(=O)O)CC(C)(C)CC5)OCCO4)cc2)NC(=O)OC2COC3(C)OCCC23)cc1 (centres unmarked) [Compound I-651] | 0.536 | 8.70
22 | COc1ccc(S(=O)(=O)N(CC(C)C)CC(O)C(Cc2ccc(NCc3ncccc3-c3sc4c(c3C(=O)O)CC(C)(C)CC4)cc2)NC(=O)OC2COC3(C)OCCC23)cc1 (centres unmarked) [Compound I-305] | 1.55 | 8.70
23 | CC(C)CN(CC(O)C(Cc1ccc(NCc2ccccc2-c2sc3c(c2C(=O)O)CC(C)(C)CC3)cc1)NC(=O)OC1COC2(C)OCCC12)S(=O)(=O)c1ccc2c(c1)OCO2 (centres unmarked) [Compound I-465] | 0.675 | 8.53
24 | CC1(C)CCc2sc(NC(=O)c3ccccc3CNc3ccc(CC(NC(=O)OC4COC5OCCC45)C(O)CN(CC4CCC4)S(=O)(=O)c4ccc5c(c4)OCO5)cc3)c(C(=O)O)c2C1 (centres unmarked) [Compound I-861] | 0.0804 | 8.55
25 | COc1ccc(S(=O)(=O)N(CC(C)C)CC(O)C(Cc2ccc(N(C)Cc3ccc(OC)cc3-c3sc4c(c3C(=O)O)CC(C)(C)CC4)cc2)NC(=O)OC2COC3(C)OCCC23)cc1 (centres unmarked) [Compound I-490] | 0.88 | 8.70
26 | COc1ccc(S(=O)(=O)N(CC(C)C)CC(O)C(Cc2ccc(NCc3cc(N(C)C)ccc3-c3sc4c(c3C(=O)O)CC(C)(C)CC4)cc2)NC(=O)OC2COC3(C)OCCC23)cc1 (centres unmarked) [Compound I-455] | 0.236 | 8.62
27 | COc1ccc(S(=O)(=O)N(CC(C)C)CC(O)C(Cc2ccc(NCc3cc(N4CCC4)ccc3-c3sc4c(c3C(=O)O)CC(C)(C)CC4)cc2)NC(=O)OC2COC3(C)OCCC23)cc1 (centres unmarked) [Compound I-693] | 0.247 | 8.48
28 | COc1ccc(S(=O)(=O)N(CC(C)C)CC(O)C(Cc2ccc(OCc3ccccc3-c3nc4n(c3C(=O)O)CCCC4)cc2)NC(=O)OC2COC3(C)OCCC23)cc1 (centres unmarked) [Compound I-125] | 3.89 | 8.80

— patent US20170253607A1, “LONG-ACTING HIV PROTEASE INHIBITOR” (Shionogi & Co., Ltd., priority 2014, published 2017)
